Experimental data as given in the supplement of paper PMC7840683.

Tested on: HepaRG
Assay: LDH release cytotoxicity, % of total lysis control; higher = more cytotoxic
Details: 48 h
Summary of the method: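 Duplicate wells of single-lot HepaRG cells, grown on collagen I-coated 96-well plates, received eight-point half-log series of test chemicals with 100 µM as the top concentration. Exposure lasted 48 h in serum-free induction medium with 0.5% DMSO, while total lysis wells received 0.1% Triton X. Resorufin fluorescence (CytoTox-ONE, Tecan Safire) was used to quantify LDH leaked into 50 µL of spent medium. Values for percent cytotoxicity were normalized to on-plate vehicle and total lysis controls and averaged across the duplicates.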

COc1ccc(-c2ccccc2)cc1NNC(=O)OC(C)C [Bifenazate]
Details	LDH release cytotoxicity [%]
0.03162 µM	-1.53
0.1 µM	-1.35
0.3162278 µM	-1.03
1 µM	-1.59
3.16228 µM	-1.11
10 µM	-0.547
31.6228 µM	-0.468
100 µM	1.1

CC(N)=O [Acetamide]
Details	LDH release cytotoxicity [%]
0.03162 µM	-1.42
0.1 µM	-0.0289
0.3162278 µM	-1.35
1 µM	-2.5
3.16228 µM	-2.19
10 µM	-0.925
31.6228 µM	-0.0914
100 µM	1.3

Cc1cc(SC2C(=O)CC(CCc3ccc(N)cc3)(C(C)C)OC2=O)c(C(C)(C)C)cc1CO (configuration not stated) [CI-1029]
Details	LDH release cytotoxicity [%]
0.03162 µM	-0.634
0.1 µM	-3.84
0.3162278 µM	-3.74
1 µM	-3.966
3.16228 µM	-4.19
10 µM	-3.49
31.6228 µM	-3.96
100 µM	-2.25

CCNc1nc(N)nc(Cl)n1 [Deisopropylatrazine]
Details	LDH release cytotoxicity [%]
0.03162 µM	-0.429
0.1 µM	-1.18
0.3162278 µM	-0.471
1 µM	-1.46
3.16228 µM	-0.314
10 µM	-0.765
31.6228 µM	-0.375
100 µM	0.373

COc1cccc(-c2ccc(C=CCN3CCCCCC3)cc2Cl)c1
Details	LDH release cytotoxicity [%]
0.0286186 µM	-0.404
0.0905 µM	-2.18
0.2861861 µM	-2.02
0.905 µM	-1.85
2.86186 µM	-1.3
9.05 µM	-0.654
28.618613 µM	0.285
90.5 µM	71.6

CN(C)C=O [N,N-Dimethylformamide]
Details	LDH release cytotoxicity [%]
0.03162 µM	-0.983
0.1 µM	-2.55
0.3162278 µM	-1.61
1 µM	-2.12
3.16228 µM	-2.02
10 µM	-1.22
31.6228 µM	-0.581
100 µM	0.434

Cc1ccc(N)cc1 [4-Methylaniline]
Details	LDH release cytotoxicity [%]
0.03162 µM	-1.74
0.1 µM	-1.26
0.3162278 µM	-1.71
1 µM	-2.15
3.16228 µM	-1.82
10 µM	-1.12
31.6228 µM	-1.47
100 µM	0.2

COc1cccc(C(O)C2CCN(CCc3ccc(F)cc3)CC2)c1OC (configuration not stated) [Volinanserin]
Details	LDH release cytotoxicity [%]
0.03162 µM	-0.377
0.1 µM	-1.03
0.3162278 µM	0.298
1 µM	-0.566
3.16228 µM	-0.0858
10 µM	-1.21
31.6228 µM	0.408
100 µM	7.12

Cc1ccc(N=CN(C)C=Nc2ccc(C)cc2C)c(C)c1 [Amitraz]
Details	LDH release cytotoxicity [%]
0.03162 µM	-0.945
0.1 µM	-1.23
0.3162278 µM	-2.67
1 µM	-1.98
3.16228 µM	-2.06
10 µM	-1.45
31.6228 µM	-0.79
100 µM	1.17

CCN(Cc1cccnc1)C(=O)c1cccc(Cl)c1C1(C)C(=O)N(Cc2ccc(OC)cc2OC)c2ccc(Cl)cc21 (configuration not stated)
Details	LDH release cytotoxicity [%]
0.02988 µM	-0.884
0.0945 µM	-1.62
0.298835 µM	-1.35
0.945 µM	-1.68
2.98835 µM	-2.31
9.45 µM	1.33
29.8835 µM	7.13
94.5 µM	11.6

CC(C)CC(C)O (configuration not stated) [4-Methyl-2-pentanol]
Details	LDH release cytotoxicity [%]
0.03162 µM	-0.36
0.1 µM	-0.242
0.3162278 µM	-1.1
1 µM	-1.21
3.16228 µM	-1.33
10 µM	-1.04
31.6228 µM	0.165
100 µM	2.03

CCCCCCC(=O)O [Heptanoic acid]
Details	LDH release cytotoxicity [%]
0.03162 µM	-1.47
0.1 µM	-1.55
0.3162278 µM	-1.65
1 µM	-1.97
3.16228 µM	-1.6
10 µM	-1.54
31.6228 µM	-1.75
100 µM	0.197

O=C(O)C(F)(F)C(F)(F)C(F)(F)C(F)(F)C(F)(F)C(F)(F)C(F)(F)F [Perfluorooctanoic acid]
Details	LDH release cytotoxicity [%]
0.03162 µM	-0.867
0.1 µM	-1.32
0.3162278 µM	-1.53
1 µM	-1.76
3.16228 µM	-0.724
10 µM	-1.14
31.6228 µM	-1.29
100 µM	1.94

CC(=O)Nc1ccc(O)cc1 [Acetaminophen]
Details	LDH release cytotoxicity [%]
0.03162 µM	-3.14
0.1 µM	-3.633
0.3162278 µM	-2.81
1 µM	-3.06
3.16228 µM	-3.13
10 µM	-3.2
31.6228 µM	-2.512
100 µM	-1.82

Cc1ccc(-c2cc(C(F)(F)F)nn2-c2ccc(S(N)(=O)=O)cc2)cc1 [Celecoxib]
Details	LDH release cytotoxicity [%]
0.03162 µM	-1.06
0.1 µM	-0.435
0.3162278 µM	-0.88
1 µM	-1.96
3.16228 µM	-1.21
10 µM	-0.583
31.6228 µM	3.13
100 µM	89.34

N#Cc1cccnc1 [3-Pyridinecarbonitrile]
Details	LDH release cytotoxicity [%]
0.03162 µM	-1.36
0.1 µM	-2.41
0.3162278 µM	-2.8
1 µM	-2.872
3.16228 µM	-3.04
10 µM	-2.26
31.6228 µM	-2.04
100 µM	-1.31

O=S(=O)(O)c1ccc(N=Nc2c(O)ccc3cc(S(=O)(=O)O)ccc23)cc1 [FD&C Yellow 6]
Details	LDH release cytotoxicity [%]
0.03162 µM	-2.21
0.1 µM	-2.28
0.3162278 µM	-3.01
1 µM	-3.07
3.16228 µM	-4.37
10 µM	-4.81
31.6228 µM	-4.8
100 µM	-4.65

COC(=O)c1ccccc1C(=O)OC [Dimethyl phthalate]
Details	LDH release cytotoxicity [%]
0.03162 µM	-0.705
0.1 µM	-1.99
0.3162278 µM	-1.58
1 µM	-2.6
3.16228 µM	-1.11
10 µM	-0.678
31.6228 µM	-0.11
100 µM	1.18

CCOP(=S)(OCC)SCSCC [Phorate]
Details	LDH release cytotoxicity [%]
0.03162 µM	-1.85
0.1 µM	-2.54
0.3162278 µM	-2.48
1 µM	-2.38
3.16228 µM	-2.32
10 µM	-1.2
31.6228 µM	-1.22
100 µM	-0.0088
